The values below come from US7732457B2, “Amino-pyridines as inhibitors of β-secretase” (Wyeth LLC, priority 2005, dated 2010).

In data set [1] the target is human BACE1 (Homo sapiens, UniProt P56817). Description: BACE-1 fluorescent kinetic assay (cleavage of peptide substrate WABC-6). The following applies: 10 nM enzyme, 25 μM substrate WABC-6, Na-Acetate pH 4.5, room temperature. In kind it is biochemical. How it is done: Evaluation of BACE-1 Binding Affinity of Test Compounds
Fluorescent Kinetic Assay
Dilution and mixing steps: total reaction volume: 100 μL
100 μM substrate dilution in 1×PBS was prepared, and
Fluorescence Readings: Readings at λex 320 nm and λem 420 nm are taken every 40 sec for 30 min at room temperature and the linear slope for substrate cleavage rate (vi) determined.

human BACE1, sequence (P56817 46-501): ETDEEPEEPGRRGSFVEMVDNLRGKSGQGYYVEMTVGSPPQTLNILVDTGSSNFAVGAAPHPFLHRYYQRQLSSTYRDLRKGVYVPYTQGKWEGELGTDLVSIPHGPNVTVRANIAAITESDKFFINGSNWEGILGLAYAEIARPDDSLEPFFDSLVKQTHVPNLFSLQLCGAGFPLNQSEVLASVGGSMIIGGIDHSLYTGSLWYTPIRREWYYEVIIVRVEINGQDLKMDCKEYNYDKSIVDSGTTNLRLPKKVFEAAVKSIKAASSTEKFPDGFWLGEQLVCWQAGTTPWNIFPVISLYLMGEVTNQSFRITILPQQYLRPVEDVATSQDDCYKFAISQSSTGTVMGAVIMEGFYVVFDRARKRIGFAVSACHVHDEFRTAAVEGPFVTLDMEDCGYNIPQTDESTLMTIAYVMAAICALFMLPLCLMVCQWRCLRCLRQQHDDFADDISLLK

The term melting point denotes the temperature, or range, at which the solid turns liquid. In turn, `CCOC(=O)c1ccc(-c2ccc(-c3ccc(F)cc3)n2Cc2cccc(N)n2)cc1` [Example 57, Ethyl 4-[1-[(6-aminopyridin-2-yl)methyl]-5-(4-fluorophenyl)-1H-pyrrol-2-yl]benzoate] returned a melting point of 172 to 173 °C. Further, the “BACE 1 IC50 μM” value in data set [1] is “D (D = >5.0 μM-0.10 = μM)”.
The molecule `CCOC(=O)c1ccc(-c2ccc(-c3ccccc3)n2Cc2cccc(N)n2)cc1` [Example 58, Ethyl 4-{1-[(6-aminopyridin-2-yl)methyl]-5-phenyl-1H-pyrrol-2-yl}benzoate] registered a melting point of 161 to 162 °C. Moreover, the “BACE 1 IC50 μM” value in data set [1] is reported as “D (D = >5.0 μM-0.10 = μM)”.
In general, IC50 refers to the midpoint of a concentration-inhibition curve. Higher therefore signals weaker potency in that assay. In turn, `CCNC(=O)c1ccc(-c2ccc(-c3ccc(F)cc3)n2Cc2cccc(N)n2)cc1` [Example 61, 4-[1-[(6-aminopyridin-2-yl)methyl]-5-(4-fluorophenyl)-1H-pyrrol-2-yl]-N-ethylbenzamide] showed a melting point of 184 to 185 °C. The same molecule displayed an IC50 in data set [1] of 1.1 to 5 µM.
On to `Nc1cccc(Cn2c(-c3ccccc3)ccc2-c2ccc(C(=O)NCC3CCCO3)cc2)n1` (centres unmarked) [Example 66, 4-{1-[(6-aminopyridin-2-yl)methyl]-5-phenyl-1H-pyrrol-2-yl}-N-(tetrahydrofuran-2-ylmethyl)benzamide], for which the melting point was 98 to 99 °C. The “BACE 1 IC50 μM” value in data set [1] is given as “D (D = >5.0 μM-0.10 = μM)”.
